In patent US20230083973A1, “SUBSTITUTED CYCLOPROPYL-2,2'-BIP[…], ANALOGUES THEREOF, AND METHODS USING SAME” (priority 2019, published 2023):

tested on: HBsAg; assay: HBsAg assay: inhibition of HBsAg in HepG2.2.15 cells (chemiluminescence immunoassay of supernatant); type: cell-based, hepatitis B virus; settings: Hepatitis B virus, HepG2.2.15, 144 h, read-out: sAg EC50, HepG2.2.15 cells; HBsAg in supernatant at day 6 after exposure to compound; 0.5% DMSO
In short: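 Secreted HBsAg quantified by CLIA in day-6 supernatants of HepG2.2.15 cultures given compound dilutions at 0.5% final DMSO, with one compound/medium replenishment after 2–3 days. Dose-response fits gave EC50 (50% inhibition); viability checked separately by CellTiter-Glo.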

**Q.** For c1cnc(-c2ncc([C@@H]3C[C@H]3c3cnc4ccccn34)cn2)nc1 (relative stereo) [Example 170, trans-3-(2-([2,2′-Bipyrimidin]-5-yl)cyclopropyl)imidazo[1,2-a]pyridine], which EC50 is on record?
**A.** 1 µM

**Q.** Which EC50 does the source give for CC(C)OC1CN(c2cc([C@@H]3C[C@H]3c3cnc(-c4ncccn4)nc3)cc(F)c2F)C1 (relative stereo) [Example 210, trans-5-(2-(3,4-Difluoro-5-(3-isopropoxyazetidin-1-yl)phenyl)cyclopropyl)-2,2′-bipyrimidine] here?
**A.** 0.055 µM

**Q.** Which EC50 does the source give for COCCCn1ncc2c([C@@H]3C[C@H]3c3cnc(-c4ncccn4)nc3)ccc(F)c21 (relative stereo) [Example 276, trans-4-(2-([2,2′-Bipyrimidin]-5-yl)cyclopropyl)-7-fluoro-1-(3-methoxypropyl)-1H-indazole] here?
**A.** 0.01 µM

**Q.** Which EC50 does the source give for O[C@@H]1CCN(c2cc(C3CC3c3cnc(-c4ncccn4)nc3)cc(Cl)c2F)C1 (single isomer, unassigned) [Example 126] here?
**A.** 0.12 µM

**Q.** COCCOc1ccc(C2CC2c2cnc(-c3ncccn3)nc2)cc1F (single isomer, unassigned) [Example 23, trans-5-(2-(3-Fluoro-4-(2-methoxyethoxy)phenyl)cyclopropyl)-2,2′-bipyrimidine] was tested. Which EC50 did it give?
**A.** 0.095 µM

**Q.** With Cn1ccc(COc2cc([C@@H]3C[C@H]3c3cnc(-c4ncccn4)nc3)cc(F)c2F)n1 (relative stereo) [Example 219, trans-5-(2-(3,4-Difluoro-5-((1-methyl-1H-pyrazol-3-yl)methoxy)phenyl)cyclopropyl)-2,2′-bipyrimidine] as the compound, how does the EC50 read?
**A.** 0.096 µM

**Q.** How did the EC50 turn out when OCc1cnn(-c2cc([C@@H]3C[C@H]3c3cnc(-c4ncccn4)nc3)cc(F)c2F)c1 (relative stereo) [Example 234, trans-(1-(5-(2-([2,2′-Bipyrimidin]-5-yl)cyclopropyl)-2,3-difluorophenyl)-1H-pyrazol-4-yl)methanol] was run?
**A.** 0.14 µM

**Q.** For CO[C@@H]1CCN(c2cc(C3CC3c3cnc(-c4ncccn4)nc3)cc(Cl)c2F)C1 (single isomer, unassigned) [Example 110], which EC50 is on record?
**A.** 0.19 µM

same assay, conditions: read-out: sAg EC50; HepG2.2.15 cells; HBsAg in supernatant at day 6 after exposure to compound; 0.5% DMSO

**Q.** How did the EC50 turn out when COc1cc(C2CC2c2cnc(-c3ncccn3)nc2)cc(F)c1F (single isomer, unassigned) [Example 85, trans-5-(2-(3,4-Difluoro-5-methoxyphenyl)cyclopropyl)-2,2′-bipyrimidine] was run?
**A.** 0.029 µM

**Q.** With Cc1c(C2CC2c2cnc(-c3ncccn3)nc2)ccc(Cl)c1OCC1CC1 (single isomer, unassigned) [Example 62, trans-5-(2-(4-Chloro-3-(cyclopropylmethoxy)-2-methylphenyl)cyclopropyl)-2,2′-bipyrimidine] as the compound, how does the EC50 read?
**A.** 49 µM

**Q.** How did the EC50 turn out when COCCOc1cc(F)c(Cl)cc1C1CC1c1cnc(-c2ncccn2)nc1 (single isomer, unassigned) [Example 157, trans-5-(2-(5-Chloro-4-fluoro-2-(2-methoxyethoxy)phenyl)cyclopropyl)-2,2′-bipyrimidine] was run?
**A.** 49 µM

**Q.** Which EC50 does the source give for COc1ccc(C2CC2c2cnc(-c3ncccn3)nc2)cc1OC (single isomer, unassigned) [Example 32, trans-5-(2-(3,4-Dimethoxyphenyl)cyclopropyl)-2,2′-bipyrimidine] here?
**A.** 0.48 µM

**Q.** Fc1ccc(C2CC2c2cnc(-c3ncccn3)nc2)cc1N1CCC(F)(F)C1 (single isomer, unassigned) [Example 44, trans-5-(2-(3-(3,3-Difluoropyrrolidin-1-yl)-4-fluorophenyl)cyclopropyl)-2,2′-bipyrimidine] was tested. Which EC50 did it give?
**A.** 0.11 µM

**Q.** Which EC50 does the source give for COc1cc(C2CC2c2cnc(-c3ncccn3)nc2)cc(C)c1Cl (single isomer, unassigned) [Example 57, trans-5-(2-(4-Chloro-3-methoxy-5-methylphenyl)cyclopropyl)-2,2′-bipyrimidine] here?
**A.** 0.063 µM

**Q.** For COc1cc(F)ccc1C1CC1c1cnc(-c2ncccn2)nc1 (single isomer, unassigned) [Example 8, trans-5-(2-(4-Fluoro-2-methoxyphenyl)cyclopropyl)-2,2′-bipyrimidine], which EC50 is on record?
**A.** 0.45 µM

**Q.** Which EC50 does the source give for O[C@H]1CCN(c2cc(C3CC3c3cnc(-c4ncccn4)nc3)ccc2F)C1 (single isomer, unassigned) [Example 66] here?
**A.** 0.23 µM

**Q.** CC(=O)Nc1cc(C2CC2c2cnc(-c3ncccn3)nc2)ccc1Cl (single isomer, unassigned) [Example 206, trans-N-(5-(2-([2,2′-Bipyrimidin]-5-yl)cyclopropyl)-2-chlorophenyl)acetamide] was tested. Which EC50 did it give?
**A.** 0.82 µM

**Q.** For Fc1c(Cl)cc(C2CC2c2cnc(-c3ncccn3)nc2)cc1N1CCCC1 (single isomer, unassigned) [Example 109, trans-5-(2-(3-Chloro-4-fluoro-5-(pyrrolidin-1-yl)phenyl)cyclopropyl)-2,2′-bipyrimidine], which EC50 is on record?
**A.** 0.025 µM

**Q.** For Fc1ccc(C2CC2c2cnc(-c3ncccn3)nc2)cc1OCC(F)F (single isomer, unassigned) [Example 28, trans-5-(2-(3-(2,2-Difluoroethoxy)-4-fluorophenyl)cyclopropyl)-2,2′-bipyrimidine], which EC50 is on record?
**A.** 0.056 µM

**Q.** Fc1cc(C2CC2c2cnc(-c3ncccn3)nc2)cc(NC2CCCC2)c1F (single isomer, unassigned) [Example 207, trans-5-(2-([2,2′-Bipyrimidin]-5-yl)cyclopropyl)-N-cyclopentyl-2,3-difluoroaniline] was tested. Which EC50 did it give?
**A.** 0.75 µM

**Q.** Which EC50 does the source give for CO[C@@H]1CCN(c2cc(C3CC3c3cnc(-c4ncccn4)nc3)cc(Cl)c2F)C1 (single isomer, unassigned) [Example 111] here?
**A.** 0.12 µM

**Q.** CNC(=O)c1cc(C2CC2c2cnc(-c3ncccn3)nc2)ccc1Cl (single isomer, unassigned) [Example 202, trans-5-(2-([2,2′-Bipyrimidin]-5-yl)cyclopropyl)-2-chloro-N-methylbenzamide] was tested. Which EC50 did it give?
**A.** 4 µM

**Q.** How did the EC50 turn out when CO[C@H]1CCN(c2cc(C3CC3c3cnc(-c4ncccn4)nc3)cc(F)c2F)C1 (single isomer, unassigned) [Example 102] was run?
**A.** 0.029 µM

**Q.** For COc1cc(C2CC2c2cnc(-c3ncccn3)nc2-c2ccccc2)ccc1F (single isomer, unassigned) [Example 142, trans-5-(2-(4-Fluoro-3-methoxyphenyl)cyclopropyl)-4-phenyl-2,2′-bipyrimidine], which EC50 is on record?
**A.** 5 µM

**Q.** For Fc1ccc(C2CC2c2cnc(-c3ncccn3)nc2)cc1N1CCC1 (single isomer, unassigned) [Example 83, trans-5-(2-(3-(Azetidin-1-yl)-4-fluorophenyl)cyclopropyl)-2,2′-bipyrimidine], which EC50 is on record?
**A.** 0.035 µM

**Q.** With CO[C@H]1CCN(c2cc(C3CC3c3cnc(-c4ncccn4)nc3)cc(Cl)c2F)C1 (single isomer, unassigned) [Example 116] as the compound, how does the EC50 read?
**A.** 0.09 µM

**Q.** For CCc1nc(-c2ncccn2)ncc1C1CC1c1ccc(F)c(OC)c1 (single isomer, unassigned) [Example 77, trans-4-Ethyl-5-(2-(4-fluoro-3-methoxyphenyl)cyclopropyl)-2,2′-bipyrimidine], which EC50 is on record?
**A.** 5 µM

**Q.** For COc1c(Cl)ccc(C2CC2c2cnc(-c3ncccn3)nc2)c1Cl (single isomer, unassigned) [Example 133, trans-5-(2-(2,4-Dichloro-3-methoxyphenyl)cyclopropyl)-2,2′-bipyrimidine], which EC50 is on record?
**A.** 0.13 µM

**Q.** How did the EC50 turn out when O[C@H]1CCN(c2cc(C3CC3c3cnc(-c4ncccn4)nc3)cc(Cl)c2F)C1 (single isomer, unassigned) [Example 120] was run?
**A.** 0.099 µM

**Q.** Which EC50 does the source give for CO[C@H]1CCN(c2cc(C3CC3c3cnc(-c4ncccn4)nc3)ccc2F)C1 (single isomer, unassigned) [Example 67] here?
**A.** 0.18 µM

**Q.** For CC(=O)N1CC[C@@H](Nc2cc(C3CC3c3cnc(-c4ncccn4)nc3)cc(F)c2F)C1 (single isomer, unassigned) [Example 226], which EC50 is on record?
**A.** 1 µM

**Q.** With Fc1cc(C2CC2c2cnc(-c3ncccn3)nc2)cc(N2CCCC2)c1Cl (single isomer, unassigned) [Example 91, trans-5-(2-(4-Chloro-3-fluoro-5-(pyrrolidin-1-yl)phenyl)cyclopropyl)-2,2′-bipyrimidine] as the compound, how does the EC50 read?
**A.** 0.014 µM

**Q.** Which EC50 does the source give for Fc1ccc(C2CC2c2cnc(-c3ncccn3)nc2)cc1Cl (single isomer, unassigned) [Example 30, trans-5-(2-(3-Chloro-4-fluorophenyl)cyclopropyl)-2,2′-bipyrimidine] here?
**A.** 0.08 µM

**Q.** COc1cc(C2CC2c2cnc(-c3ncccn3)nc2)c(-c2ccccc2)cc1Cl (single isomer, unassigned) [Example 158, trans-5-(2-(5-Chloro-4-methoxy-[1,1′-biphenyl]-2-yl)cyclopropyl)-2,2′-bipyrimidine] was tested. Which EC50 did it give?
**A.** 3 µM

**Q.** How did the EC50 turn out when COc1cc(C2CC2c2cnc(-c3ncccn3)nc2C2CCCCC2)ccc1F (single isomer, unassigned) [Example 79, trans-4-Cyclohexyl-5-(2-(4-fluoro-3-methoxyphenyl)cyclopropyl)-2,2′-bipyrimidine] was run?
**A.** 0.22 µM

**Q.** O[C@H]1CCN(c2cc(C3CC3c3cnc(-c4ncccn4)nc3)cc(Cl)c2F)C1 (single isomer, unassigned) [Example 121] was tested. Which EC50 did it give?
**A.** 0.011 µM

**Q.** For COC1CN(c2cc([C@@H]3C[C@H]3c3cnc(-c4ncccn4)nc3)cc(F)c2F)C1 (single isomer, unassigned) [Example 122, trans-5-(2-(3,4-difluoro-5-(3-methoxyazetidin-1-yl)phenyl)cyclopropyl)-2,2′-bipyrimidine], which EC50 is on record?
**A.** 0.061 µM

**Q.** Which EC50 does the source give for Fc1cc(C2CC2c2cnc(-c3ncccn3)nc2)cc(F)c1F (single isomer, unassigned) [Example 162, trans-5-(2-(3,4,5-Trifluorophenyl)cyclopropyl)-2,2′-bipyrimidine] here?
**A.** 0.16 µM

**Q.** How did the EC50 turn out when CC(=O)N1CC[C@@H](Nc2cc(C3CC3c3cnc(-c4ncccn4)nc3)cc(F)c2F)C1 (single isomer, unassigned) [Example 227] was run?
**A.** 0.27 µM

**Q.** Which EC50 does the source give for O[C@@H]1CCN(c2cc(C3CC3c3cnc(-c4ncccn4)nc3)ccc2F)C1 (single isomer, unassigned) [Example 70] here?
**A.** 0.27 µM
